“And” between values parts separate entries of the source, which are not always exact repeats. Equal entries are not always repeated.
Tests used:
CYP3A4 mRNA expression = experiment: CYP3A4 induction, RT-qPCR in HepG2 cells; settings: 10 µM, 24 or 48 h, normalized to GAPDH and DMSO
Method: HepG2 cells were seeded on 12-well, tissue-culture-treated plates (Sarstedt) at 2.5 × 10^5 cells/well for 24 h. Cells were treated with 10 µM compound or 1% DMSO for 48 h with replenishment at 24 h. Cells were rinsed with PBS and lysed at 0, 24, and 48 h using TRI Reagent (Sigma Aldrich). […] Cellular DNA was degraded using DNase I (Invitrogen), according to the manufacturer’s instructions.
Complementary DNA (cDNA) synthesis employed the ProtoScript II First Strand cDNA Synthesis Kit (New England Biolabs) according to the manufacturer’s instructions with an additional incubation step at 25°C for 5 min. Reverse transcriptase-qPCR (RT-qPCR) was performed using a Quantstudio 5 (Thermo Fisher) in a final reaction volume of 20 µL with 4 µL cDNA template, 2× KAPA probe force master mix (Roche), 300 nM probe, and 100 nM forward and reverse primer. CYP3A4 expression was determined by normalizing the experimental sample cycle threshold values to DMSO-treated wells. GAPDH was used as a housekeeping gene.

[1] = system: HBV replication (HBV plus-polarity DNA strand); experiment: HBV replication inhibition, strand preferential qPCR in hepDES19 cells; type: cell-based, hepatitis B virus; settings: for EC50: 72 h exposure, HBV plus-polarity strand suppression, highest concentration tested 100 µM, mean ± SD, read-out: HepDES19 EC50
Method: HBV replication inhibition was measured in hepDES19 cells following 72 h compound exposure without compound replenishment. EC50 values were determined by HBV plus-polarity strand suppression using a strand preferential qPCR assay, as described previously ([28]). Three or more replicate values were obtained on different days.

HepDES19 cells = settings: read-out: HepDES19 CC50; 72 h, MTS; highest concentration tested 100 µM; mean ± SD
Method: HepDES19 cells were plated on 96-well tissue culture-treated plates (Greiner) at 1.0 × 10^4 cells per well and incubated for 48 h. Cells were treated with titrated concentrations of compound or 1% DMSO vehicle for 72 h, and cellular viability was measured by 3-(4,5-dimethylthiazol-2-yl)−5-(3-carboxymethoxyphenyl)−2-(4-sulfophenyl)−2H-tetrazolium (MTS) assays, as described previously ([20]). […] Three or more replicate assays were done on different days.

plasma proteins = experiment: Plasma protein binding, rapid equilibrium dialysis; type: in vitro ADME, bovine; settings: 10 µM compound, DMEM-F12 with 10% FBS (0.25 mg/mL BSA), 4 h, 37°C
Method: Plasma protein binding was performed using the Pierce rapid equilibrium dialysis device (Thermo Fisher) per the manufacturer’s instructions, as described ([27]). Briefly, the sample wells contained DMEM-F12 supplemented with 10% FBS spiked with 10 µM compound, and the buffer wells contained phosphate-buffered saline (PBS). The plate was incubated for 4 h at 37°C with shaking, after which 50 µL was retrieved from the buffer and sample wells and added to ice-cold acetonitrile and the internal standard described above. Samples were matrix-matched with PBS supplemented with 10% FBS or PBS alone, respectively, and centrifuged at 4,000 × g for 5 min to pellet plasma proteins. The supernatants were analyzed by LCMS/MS and percent compound bound was determined, as described previously ([27]).

[2] = Parallel artificial membrane permeability assay (PAMPA); type: in vitro ADME
Method: Compound Papp values were determined by normalizing the experimental compound absorbance to the compounds’ absorbances at equilibrium, membrane porosity, buffer volume, and time (s). Two or more replicate assays were obtained on separate days for each pH.

[3] = target: T1, human ribonuclease H1 (huRNase H1) (Homo sapiens, UniProt O60930); experiment: Human RNase H1 inhibition, fluorescent biochemical assay
T1 construct: made in house; host or cells: Escherichia coli
T1 sequence (O60930 1-286): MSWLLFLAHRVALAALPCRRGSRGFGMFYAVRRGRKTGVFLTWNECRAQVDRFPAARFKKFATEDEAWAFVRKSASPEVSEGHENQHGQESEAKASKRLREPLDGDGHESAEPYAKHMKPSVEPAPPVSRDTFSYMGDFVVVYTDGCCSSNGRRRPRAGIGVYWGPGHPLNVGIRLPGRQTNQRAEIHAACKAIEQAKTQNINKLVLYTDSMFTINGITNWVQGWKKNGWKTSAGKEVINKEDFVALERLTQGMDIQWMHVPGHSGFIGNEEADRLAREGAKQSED
Method: Recombinant human ribonuclease H1 (huRNase H1) was expressed in Escherichia coli and purified by nickel affinity chromatography, as described previously ([30]). […] The heteroduplex substrate was prepared, as described by Ponzar et al. ([30]). Reactions were initiated by the addition of MgCl2 (5 mM final) and were performed on a Biotek Synergy HTX multi-mode plate reader at 28°C.
Maximum rates of fluorescence increase were calculated using the Biotek Gen5 v3.15 software and percentage activity was determined for each compound concentration by subtracting rates from no enzyme reactions and normalizing to DMSO reactions. […] Reactions were performed at least three times on separate days.

MDCK-MDR1 cells = experiment: MDCK-MDR1 permeability assay; type: in vitro ADME; settings: 10 µM compound, 2 h; for Efflux Ratio (Papp B-A/A-B): MDCK-MDR1 cells, actively effluxed if >2
Method: MDCK-MDR1 cells were seeded on 96-well, high protein binding immobilon-P membrane plates (Millipore Sigma) at 2.4 × 10^4 cells per well for 4 days. Media were then decanted, and the cells were equilibrated with Hanks balanced salt solution (HBSS) supplemented with 10 mM CaCl2 and 1 mM MgCl2 for 1 h. Compound (10 µM) was then added to the apical side to assess active transport and to the basolateral side to assess active efflux. The cells were incubated with compound for 2 h with shaking at 37°C. Samples (50 µL) were retrieved from the recipient wells and mixed with 150 µL acetonitrile (ACN) and internal standard (1:1 of 200 ng/mL chloridazon:enalapril). Samples were pelleted at 4,000 × g and the supernatant was analyzed by liquid-chromatography/tandem mass spectrometry (LCMS/MS) analyses. […]. Active efflux was determined by Papp B/A/Papp A/B.
Tight junction formation was assessed by lucifer yellow permeation immediately following sample retrieval. Briefly, lucifer yellow (10 µM) was added to the apical wells and HBSS was added to the basolateral wells for 1 h with shaking at 37°C, after which sample was collected from the basolateral side and read on a Biotek Synergy HTX multi-mode plate reader with 485/20 excitation and 520/20 emission filters defined by the Center Wavelength/band-pass values. The percent lucifer yellow fluorescence was determined by subtracting the HBSS relative fluorescent units (RFU) from the sample RFU and normalizing to the lucifer yellow positive control RFU. Lucifer yellow permeation was determined to be acceptable if ≤3%.

[4] = Solubility limit, turbidimetric assay; type: physicochemical; settings: upper limit 200 µM
Method: Solubility limits were determined by a turbidimetric assay, as described ([27]), with the solubility limit being defined as the compound concentration where light scattering began to rise. Two or more replicate assays were performed for each compound at each pH on different days.

Microsome stability = type: in vitro ADME, human
CYP2C9 = target: T2, CYP2C9 (Homo sapiens, UniProt P11712); experiment: Cytochrome P450 inhibition, Vivid 2C9 BOMF Green kit; type: in vitro ADME; settings: 10 µM compound
T2 construct: purchased Thermo Fisher Vivid 2C9 BOMF Green
T2 sequence (P11712 whole entry): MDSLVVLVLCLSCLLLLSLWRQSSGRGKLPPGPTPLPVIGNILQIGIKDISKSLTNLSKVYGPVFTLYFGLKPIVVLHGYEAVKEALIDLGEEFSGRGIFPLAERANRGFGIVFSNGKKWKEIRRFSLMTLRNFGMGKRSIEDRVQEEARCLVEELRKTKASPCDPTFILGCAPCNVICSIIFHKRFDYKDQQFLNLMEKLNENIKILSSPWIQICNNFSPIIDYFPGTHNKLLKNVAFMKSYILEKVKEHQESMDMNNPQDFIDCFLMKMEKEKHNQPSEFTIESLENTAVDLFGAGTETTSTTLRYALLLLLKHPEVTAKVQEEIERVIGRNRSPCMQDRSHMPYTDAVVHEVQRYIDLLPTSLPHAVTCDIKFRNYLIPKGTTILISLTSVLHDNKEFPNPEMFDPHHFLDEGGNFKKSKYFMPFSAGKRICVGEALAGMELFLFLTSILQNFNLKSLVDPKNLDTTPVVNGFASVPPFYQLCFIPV
Method: (§1) Compound inhibition of Cytochrome P (CYP) 3A4, 2C9, and 2D6 was determined using Vivid CYP450 screening kits (Thermo Fisher) according to the manufacturer’s instructions, as described previously ([27]). The kits employed were: Vivid 3A4 DBOMF Green, 2C9 BOMF Green, and 2D6 EOMCC Blue. Reactions were initiated by addition of the fluorophore-conjugated substrates with Vivid NADP^+ and were conducted at 37°C using either a Biotek Synergy HTX multi-mode plate reader with 485/20 nm excitation and 520/20 nm emission filters (green-fluorescent substrate), or a Tecan Spark plate reader with monochromator settings at 415/20 nm excitation and 460/20 nm emission (blue-fluorescent substrate) defined by the Center Wavelength/band-pass values. Substrate cleavage was detected every 60 s.
(§2) Compounds were initially screened against each enzyme at 10 µM and maximum rates of fluorescence in RFU were calculated using the Biotek Gen5 v3.11 software. Percent inhibition of experimental compound reactions was normalized to the rate to DMSO vehicle reactions. Positive controls used were: CYP3A4—ketoconazole (Sigma Aldrich), CYP2C9—sulfaphenazole (Cayman Chemical), and CYP2D6—quinidine (Fisher Scientific). […] IC50 values were determined using the four-parameter log[inhibitor] versus response algorithm in GraphPad Prism. […]

CYP3A4 = target: T3, CYP3A4 (Homo sapiens, UniProt P08684); experiment: Cytochrome P450 inhibition, Vivid 3A4 DBOMF Green kit; type: in vitro ADME; settings: 10 µM compound
T3 construct: purchased Thermo Fisher Vivid 3A4 DBOMF Green
T3 sequence (P08684 whole entry): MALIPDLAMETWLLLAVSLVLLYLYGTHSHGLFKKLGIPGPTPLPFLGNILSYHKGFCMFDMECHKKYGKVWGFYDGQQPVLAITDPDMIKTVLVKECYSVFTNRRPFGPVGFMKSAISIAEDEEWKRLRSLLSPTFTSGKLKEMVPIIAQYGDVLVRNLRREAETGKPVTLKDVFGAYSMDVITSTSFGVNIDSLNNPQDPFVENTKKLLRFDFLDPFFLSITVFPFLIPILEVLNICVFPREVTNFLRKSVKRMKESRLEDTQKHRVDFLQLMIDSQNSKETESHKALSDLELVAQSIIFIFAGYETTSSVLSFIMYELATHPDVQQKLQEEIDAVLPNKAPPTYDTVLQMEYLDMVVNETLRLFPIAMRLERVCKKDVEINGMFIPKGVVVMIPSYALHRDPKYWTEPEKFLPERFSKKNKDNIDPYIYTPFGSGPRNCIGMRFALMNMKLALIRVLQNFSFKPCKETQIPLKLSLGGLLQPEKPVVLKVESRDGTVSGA
Method: as §1, §2

[5] = pH 5 (fed simulated intestinal fluid)
[6] = pH 6.5 (fasted simulated intestinal fluid)
[7] = human liver microsomes, 1 µM compound, 30 min, NADPH

| Structure (SMILES) | HepDES19 SI (CC50/EC50) [1] | EC50 [1] [µM] | CC50 (HepDES19 cells) [µM] | Avg Papp (PAMPA) ([2]; FeSSIF pH 5) [×10⁻⁶ cm/s] | Interpretation (PAMPA Papp) ([2]; FeSSIF pH 5) | Papp 1 (PAMPA) ([2]; FeSSIF pH 5, replicate 1) [×10⁻⁶ cm/s] | Papp 2 (PAMPA) ([2]; FeSSIF pH 5, replicate 2) [×10⁻⁶ cm/s] | Avg Papp (PAMPA) ([2]; pH 7.4) [×10⁻⁶ cm/s] | Interpretation (PAMPA Papp) ([2]; pH 7.4) | Papp 2 (PAMPA) ([2]; pH 7.4, replicate 2) [×10⁻⁶ cm/s] | Efflux Ratio (Papp B-A/A-B) (MDCK-MDR1 cells) | Average Sol (solubility limit) [4, 5] [µM] | Sol 1 (solubility limit) ([4]; pH 5, replicate 1) [µM] | Sol 2 (solubility limit) ([4]; pH 5, replicate 2) [µM] | Average Sol (solubility limit) [4, 6] [µM] | Sol 1 (solubility limit) ([4]; pH 6.5, replicate 1) [µM] | Sol 2 (solubility limit) ([4]; pH 6.5, replicate 2) [µM] | Average Sol (solubility limit) ([4]; pH 7.4 (DMEM-F12 with 10% FBS)) [µM] | Sol 1 (solubility limit) ([4]; pH 7.4, replicate 1) [µM] | Sol 2 (solubility limit) ([4]; pH 7.4, replicate 2) [µM] | other results |
| --- | --- | --- | --- | --- | --- | --- | --- | --- | --- | --- | --- | --- | --- | --- | --- | --- | --- | --- | --- | --- | --- |
| CC(=NOCc1cccc(C)c1)c1c(C)cc(=O)n(O)c1O [Compound 1620] | 526 | 0.19 ± 0.087 | > 100 | 18.9 | H (H: Papp > 1*10-6) | 22.9 | 14.9 | 1.38 | H (H: Papp > 1*10-6) | 1.38 | 1.39 | > 200 | > 200 | > 200 | > 200 | > 200 | > 200 | > 200 | > 200 | > 200 | CYP3A4 mRNA expression increase (CYP3A4 mRNA expression): < 2 fold; Percent bound (plasma proteins): 85.8 ± 13.2%; Papp 1 (PAMPA) ([2]; pH 7.4, replicate 1): 1.38 ×10⁻⁶ cm/s; Selectivity of HBV replication inhibition over huRNase H1 (huRNase H1 IC50 versus HBV EC50) [3]: at least 10 fold; MDCK-MDR1 Papp category, apical to basolateral (A-B) (MDCK-MDR1 cells): high (high (≥1*10^−6 cm/s)); MDCK-MDR1 Papp category, basolateral to apical (B-A) (MDCK-MDR1 cells): high (high (≥1*10^−6 cm/s)); Intrinsic clearance (Clint) rate category (Microsome stability; human liver microsomes): low (low Clint (µL/min/mg protein) rates (<8.6)); Clearance (intrinsic clearance, Clint) (Microsome stability; [7]): 7.00 µL/min/mg; Half-life (Microsome stability; [7]): >30 min |
| CC(=NOCc1ccc(OCc2ccc3ccccc3c2)cc1)c1c(C)cc(=O)n(O)c1O [Compound 1899] | 40.7 | 1.92 ± 0.7 | 68.6 ± 24.3 | 5.61 | H (H: Papp > 1*10-6) | 6.93 | 4.29 | 1.84 | H (H: Papp > 1*10-6) | 1.08 | 2.28 and > 2 | > 200 | > 200 | > 200 | > 200 | > 200 | > 200 | > 200 | > 200 | > 200 | Percent inhibition of CYP2C9 (CYP2C9): 46%; Percent inhibition of CYP3A4 (CYP3A4): ~ 42%; Papp 1 (PAMPA) ([2]; PAMPA, pH 7.4): 2.28 ×10⁻⁶ cm/s; Papp 3 (PAMPA) ([2]; pH 7.4, replicate 3): 2.16 ×10⁻⁶ cm/s; Clearance (intrinsic clearance, Clint) (Microsome stability; human, microsomes): 35.6 µL/min/mg; Half-life (Microsome stability; human, microsomes): 29.6 min |

From paper PMC11784145, “Efficacy and in vitro pharmacological assessment of novel N-hydroxypyridinediones as hepatitis B virus ribonuclease H inhibitors” (Antimicrobial Agents and Chemotherapy, 2024)
